Measurements from patent publication US4925650A, “Technetium -99m complex for examining the renal function” (Mallinckrodt, Inc., priority 1988, dated 1990).

Key:
[1] = cited from earlier work; for mode of elimination / renal secretion (in words): in vivo
[2] = Liver accumulation in a human being after 40 minutes; format: in vivo; settings: 0.5 mCi intravenously
Experimental: The liver accumulation is determined after 40 minutes. For the tested Tc99m-LL-isomer it amounts to 2.9%, for Tc99m-MAG3 it amounts to 4.0% of the injected dose.

| Compound | mode of elimination / renal secretion (in words) [1] | clearance ([1]; chelate of DTPA) | liver accumulation [2] |
| --- | --- | --- | --- |
| O=C(O)CNC(=O)c1ccccc1[131I] [iodo-131-Hippuran] | secreted actively tubularly |  |  |
| Tc99m-diethylene triamine pentaacetic acid [DTPA] | eliminated entirely or substantially entirely by glomerular filtration | 100 ml of blood plasma per minute |  |
| Tc-99m-mercaptoacetyltriglycine [Tc99m-MAG3] | secreted by the kidneys selectively and approximately equally rapidly as iodo-Hippuran |  | 4.0 % of the injected dose |
